From patent US4698352A, “4-oxo-1,4-dihydronicotinic acid derivatives, salts thereof, and antibacterial agents containing the same” (Toyama Chemical Co., Ltd., priority 1982, dated 1987)
≈ marks a conversion by molar mass, not a printed value. Where two headings read alike, the source gives them in different places.

Legend:
Assay in all cases: Antibacterial activity (MIC), agar dilution
Assay type in all cases: cell-based
St. aureus F-137* = settings: Staphylococcus aureus, 20 h
Description: (§1) The amount of bacteria inoculated was 10^4 cells per plate (10^6 cells per ml).
(§2) * Penicillinase-producing bacteria

E. coli TK-3* = settings: Escherichia coli, 20 h
Description: as §1, §2

Kl. pneumoniae Y-4* = settings: Klebsiella pneumoniae, 20 h, Kl. pneumoniae Y-4, penicillinase-producing; 10^6 cells per ml; read-out: MIC
Description: as §1, §2

Ps. aeruginosa GN3379* = settings: Pseudomonas aeruginosa, Ps. aeruginosa GN3379, penicillinase-producing, 10^6 cells per ml
Description: as §1, §2

Pro. vulgaris GN76** = settings: Proteus vulgaris, 20 h; Pro. vulgaris GN76, cephalospolinase-producing; 10^6 cells per ml; read-out: MIC
Description: as §1
(§3) ** Cephalospolinase-producing bacteria

Ps. aeruginosa GN918** = settings: Pseudomonas aeruginosa, 20 h; Ps. aeruginosa GN918, cephalospolinase-producing; 10^6 cells per ml; read-out: MIC
Description: as §1, §3

E. coli GN5482** = settings: Escherichia coli, 20 h; E. coli GN5482, cephalospolinase-producing; 10^6 cells per ml; read-out: MIC
Description: as §1, §3

St. aureus FDA209P = settings: Staphylococcus aureus, FDA209P, 20 h
Description: as §1

Ps. aeruginosa S-68 = settings: Pseudomonas aeruginosa
Description: as §1

Kl. pneumoniae Y-41 = settings: Klebsiella pneumoniae, Y41, 10^6 cells per ml, 37° C., 20 hours, read-out: MIC
Description: as §1

Ent. cloacae IID977 = settings: Enterobacter cloacae, IID977, 20 h
Description: as §1

Pro. mirabilis T-111 = settings: Proteus mirabilis, 37° C.
Description: as §1

Pro. vulgaris GN3027 = settings: Proteus vulgaris, GN3027, 20 h, Pro. vulgaris GN3027; 10^6 cells per ml; 37° C., 20 hours; read-out: MIC
Description: as §1

E. coli NIHJ JC-2 = settings: Escherichia coli, NIHJJC2, 20 h
Description: as §1

E. coli TK-111 = settings: Escherichia coli, TK111, 20 h, E. coli TK-111; 10^6 cells per ml; 37° C., 20 hours; read-out: MIC
Description: as §1

Pro. morganii T-216 = settings: Morganella morganii, 37° C.
Description: as §1

Kl. pneumoniae Y-50 = settings: Klebsiella pneumoniae, Y50, 20 h, 10^6 cells per ml, 37° C., read-out: MIC
Description: as §1

Ps. aeruginosa IFO3445 = settings: Pseudomonas aeruginosa
Description: as §1

Aci. antitratus A-6 = settings: 20 h, Aci. antitratus A-6; 10^6 cells per ml; 37° C., 20 hours; read-out: MIC
Description: as §1

[1] = St. aureus F-137, penicillinase-producing, 10^6 cells per ml, read-out: MIC
[2] = E. coli TK-3, penicillinase-producing, 10^6 cells per ml, read-out: MIC
[3] = St. aureus FDA209P, 10^6 cells per ml, 37° C., 20 hours, read-out: MIC
[4] = S68, Ps. aeruginosa S-68, 10^6 cells per ml, 37° C., 20 hours, read-out: MIC
[5] = Ent. cloacae IID977, 10^6 cells per ml, 37° C., 20 hours, read-out: MIC
[6] = E. coli NIHJ JC-2, 10^6 cells per ml, 37° C., 20 hours, read-out: MIC
[7] = Ps. aeruginosa IFO3445, 10^6 cells per ml, 37° C., 20 hours, read-out: MIC
[8] = T216, 10^6 cells per ml, 20 hours, read-out: MIC
[9] = T111, 10^6 cells per ml, 20 hours, read-out: MIC

| Structure (SMILES) | MIC (St. aureus F-137*; [1]) | MIC (E. coli TK-3*; [2]) | MIC (Kl. pneumoniae Y-4*) | MIC (Ps. aeruginosa GN3379*; 20 h, read-out: MIC) | MIC (Pro. vulgaris GN76**) | MIC (Ps. aeruginosa GN918**) | MIC (E. coli GN5482**) | MIC (St. aureus FDA209P; [3]) | MIC (Ps. aeruginosa S-68; [4]) | MIC (Kl. pneumoniae Y-41) | MIC (Ent. cloacae IID977; [5]) | MIC (Pro. mirabilis T-111; T111, 20 h, 10^6 cells per ml) | MIC (Pro. vulgaris GN3027) | MIC (E. coli NIHJ JC-2; [6]) | MIC (E. coli TK-111) | MIC (Pro. morganii T-216; T216, 20 h, 10^6 cells per ml) | MIC (Kl. pneumoniae Y-50) | MIC (Ps. aeruginosa IFO3445; [7]) | MIC (Ps. aeruginosa S-68; S68, 20 h) | MIC (Pro. morganii T-216; [8]) | other results |
| --- | --- | --- | --- | --- | --- | --- | --- | --- | --- | --- | --- | --- | --- | --- | --- | --- | --- | --- | --- | --- | --- |
| Cc1nc2cc(-c3cc(=O)c(C(=O)O)cn3-c3ccc(O)cc3)ccc2s1 | 0.78 µg/mL (≈ 2.06 µM) | 0.78 µg/mL (≈ 2.06 µM) | 3.13 µg/mL (≈ 8.27 µM) | 6.25 µg/mL (≈ 16.5 µM) | 1.56 µg/mL (≈ 4.12 µM) | 1.56 µg/mL (≈ 4.12 µM) | ≤ 0.05 µg/mL | 0.39 µg/mL (≈ 1.03 µM) | 6.25 µg/mL (≈ 16.5 µM) | 3.13 µg/mL (≈ 8.27 µM) | 1.56 µg/mL (≈ 4.12 µM) | 3.13 µg/mL (≈ 8.27 µM) | 0.39 µg/mL (≈ 1.03 µM) | 0.39 µg/mL (≈ 1.03 µM) | 0.1 µg/mL (≈ 0.264 µM) | 3.13 µg/mL (≈ 8.27 µM) | 0.78 µg/mL (≈ 2.06 µM) | 12.5 µg/mL (≈ 33 µM) | – | – | – |
| Cc1nc2ccc(-c3cc(=O)c(C(=O)O)cn3-c3ccc(O)cc3)cc2s1 | 0.39 µg/mL (≈ 1.03 µM) | 0.78 µg/mL (≈ 2.06 µM) | 3.13 µg/mL (≈ 8.27 µM) | 12.5 µg/mL (≈ 33 µM) | 0.78 µg/mL (≈ 2.06 µM) | 1.56 µg/mL (≈ 4.12 µM) | ≤ 0.05 µg/mL | 0.39 µg/mL (≈ 1.03 µM) | 12.5 µg/mL (≈ 33 µM) | 3.13 µg/mL (≈ 8.27 µM) | 1.56 µg/mL (≈ 4.12 µM) | 3.13 µg/mL (≈ 8.27 µM) | 0.39 µg/mL (≈ 1.03 µM) | 0.39 µg/mL (≈ 1.03 µM) | 0.2 µg/mL (≈ 0.529 µM) | 3.13 µg/mL (≈ 8.27 µM) | 0.39 µg/mL (≈ 1.03 µM) | 25 µg/mL (≈ 66.1 µM) | – | – | – |
| O=C(O)c1cn(-c2ccc(O)cc2)c(-c2ccc3ccsc3c2)cc1=O | 0.1 µg/mL (≈ 0.275 µM) | 0.39 µg/mL (≈ 1.07 µM) | 1.56 µg/mL (≈ 4.29 µM) | 3.13 µg/mL (≈ 8.61 µM) | 0.39 µg/mL (≈ 1.07 µM) | 0.78 µg/mL (≈ 2.15 µM) | ≤ 0.05 µg/mL | 0.1 µg/mL (≈ 0.275 µM) | – | 0.78 µg/mL (≈ 2.15 µM) | 0.39 µg/mL (≈ 1.07 µM) | 1.56 µg/mL (≈ 4.29 µM) | ≤ 0.05 µg/mL | 0.2 µg/mL (≈ 0.55 µM) | ≤ 0.05 µg/mL | – | 0.39 µg/mL (≈ 1.07 µM) | – | 1.56 µg/mL (≈ 4.29 µM) | 0.39 µg/mL (≈ 1.07 µM) | MIC (Ps. aeruginosa IFO3445; IFO3445, 20 h): 1.56 µg/mL (≈ 4.29 µM) |
| O=C(O)c1cn(-c2ccc(F)cc2)c(-c2cc3ccccc3s2)cc1=O | 0.39 µg/mL (≈ 1.07 µM) | – | 12.5 µg/mL (≈ 34.2 µM) | – | 1.56 µg/mL (≈ 4.27 µM) | 1.56 µg/mL (≈ 4.27 µM) | 0.39 µg/mL (≈ 1.07 µM) | 0.78 µg/mL (≈ 2.13 µM) | – | 6.25 µg/mL (≈ 17.1 µM) | – | 3.13 µg/mL (≈ 8.57 µM) | 0.39 µg/mL (≈ 1.07 µM) | – | 0.78 µg/mL (≈ 2.13 µM) | 3.13 µg/mL (≈ 8.57 µM) | 3.13 µg/mL (≈ 8.57 µM) | – | 6.25 µg/mL (≈ 17.1 µM) | – | MIC (E. coli TK-3*): 3.13 µg/mL (≈ 8.57 µM); MIC (Ps. aeruginosa GN3379*; GN3379, 20 h): 12.5 µg/mL (≈ 34.2 µM); MIC (Ent. cloacae IID977): 3.13 µg/mL (≈ 8.57 µM); MIC (E. coli NIHJ JC-2): 3.13 µg/mL (≈ 8.57 µM); MIC (Ps. aeruginosa IFO3445; IFO3445, 20 h): 12.5 µg/mL (≈ 34.2 µM) |
| CC(=O)Oc1ccc(-n2cc(C(=O)O)c(=O)cc2-c2cc3ccccc3o2)cc1 | 0.39 µg/mL (≈ 1 µM) | 3.13 µg/mL (≈ 8.04 µM) | 12.5 µg/mL (≈ 32.1 µM) | – | 1.56 µg/mL (≈ 4.01 µM) | – | 0.2 µg/mL (≈ 0.514 µM) | 0.39 µg/mL (≈ 1 µM) | – | 6.25 µg/mL (≈ 16.1 µM) | 3.13 µg/mL (≈ 8.04 µM) | 6.25 µg/mL (≈ 16.1 µM) | 0.39 µg/mL (≈ 1 µM) | 1.56 µg/mL (≈ 4.01 µM) | 0.78 µg/mL (≈ 2 µM) | – | 0.78 µg/mL (≈ 2 µM) | – | 6.25 µg/mL (≈ 16.1 µM) | 3.13 µg/mL (≈ 8.04 µM) | MIC (Ps. aeruginosa GN3379*; GN3379, 20 h): 6.25 µg/mL (≈ 16.1 µM); MIC (Aci. antitratus A-6): 0.78 µg/mL (≈ 2 µM); MIC (Ps. aeruginosa IFO3445; IFO3445, 20 h): 6.25 µg/mL (≈ 16.1 µM) |
| Cc1cc(F)ccc1-n1cc(C(=O)O)c(=O)cc1C1CC=CCC1 (stereo not drawn) | – | 12.5 µg/mL (≈ 38.2 µM) | 25 µg/mL (≈ 76.4 µM) | 100 µg/mL (≈ 305 µM) | 6.25 µg/mL (≈ 19.1 µM) | 12.5 µg/mL (≈ 38.2 µM) | 0.78 µg/mL (≈ 2.38 µM) | – | 50 µg/mL (≈ 153 µM) | 25 µg/mL (≈ 76.4 µM) | 12.5 µg/mL (≈ 38.2 µM) | – | 0.39 µg/mL (≈ 1.19 µM) | 6.25 µg/mL (≈ 19.1 µM) | 1.56 µg/mL (≈ 4.77 µM) | – | 3.13 µg/mL (≈ 9.56 µM) | 100 µg/mL (≈ 305 µM) | – | 12.5 µg/mL (≈ 38.2 µM) | MIC (St. aureus F-137*): 3.13 µg/mL (≈ 9.56 µM); MIC (St. aureus FDA209P): 3.13 µg/mL (≈ 9.56 µM); MIC (Pro. mirabilis T-111; [9]): 25 µg/mL (≈ 76.4 µM) |
| Cc1cc(O)ccc1-n1cc(C(=O)O)c(=O)cc1-c1ccc(-c2cccs2)cc1 | ≤ 0.05 µg/mL | 0.39 µg/mL (≈ 0.967 µM) | 0.78 µg/mL (≈ 1.93 µM) | 3.13 µg/mL (≈ 7.76 µM) | 0.2 µg/mL (≈ 0.496 µM) | 0.78 µg/mL (≈ 1.93 µM) | ≤ 0.05 µg/mL | ≤ 0.05 µg/mL | 1.56 µg/mL (≈ 3.87 µM) | 0.78 µg/mL (≈ 1.93 µM) | 0.39 µg/mL (≈ 0.967 µM) | – | ≤ 0.05 µg/mL | 0.1 µg/mL (≈ 0.248 µM) | ≤ 0.05 µg/mL | – | 0.39 µg/mL (≈ 0.967 µM) | 6.25 µg/mL (≈ 15.5 µM) | – | 0.39 µg/mL (≈ 0.967 µM) | MIC (Pro. mirabilis T-111; [9]): 0.39 µg/mL (≈ 0.967 µM) |
